The target in the assay is T1, α-glucosidase (Saccharomyces cerevisiae, UniProt P53341).
T1 construct: gene MAL12
The assay is described as follows: p-NPG hydrolysis assay (activation, maximal effect ratio) with purified enzyme; also fished out by enzyme-immobilized magnetic nanoparticles. It is filed as biochemical.

T1 sequence (P53341 whole entry): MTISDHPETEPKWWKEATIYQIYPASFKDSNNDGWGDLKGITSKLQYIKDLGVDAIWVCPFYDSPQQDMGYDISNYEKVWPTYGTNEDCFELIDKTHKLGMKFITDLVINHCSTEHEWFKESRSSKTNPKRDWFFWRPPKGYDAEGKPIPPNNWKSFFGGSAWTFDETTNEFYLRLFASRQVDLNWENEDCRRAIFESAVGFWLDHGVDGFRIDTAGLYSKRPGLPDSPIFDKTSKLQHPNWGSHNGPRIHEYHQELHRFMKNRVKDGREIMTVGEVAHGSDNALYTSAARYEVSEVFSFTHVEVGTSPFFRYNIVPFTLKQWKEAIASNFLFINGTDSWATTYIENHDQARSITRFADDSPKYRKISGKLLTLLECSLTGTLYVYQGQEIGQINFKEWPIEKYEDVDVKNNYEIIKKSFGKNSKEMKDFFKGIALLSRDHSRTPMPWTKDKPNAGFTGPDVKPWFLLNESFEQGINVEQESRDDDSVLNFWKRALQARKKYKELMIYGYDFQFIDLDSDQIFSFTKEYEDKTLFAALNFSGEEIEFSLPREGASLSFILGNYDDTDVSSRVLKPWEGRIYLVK

As to `COc1cc(-c2c(C)cc(O)cc2O)oc(=O)c1` [compound 1, aloenin aglycone], the Emax was found to be 26.4 ± 0.8%. Then `CC(=O)c1c(C[C@@H]2Cc3cc(O)cc(O)c3C(=O)O2)cc(O)cc1O[C@@H]1O[C@H](CO)[C@@H](O)[C@H](OC(=O)/C=C/c2ccc(O)cc2)[C@H]1O` [compound 2, aloeacone], with 17.8 ± 0.3%.

By Emax is commonly meant the size of the effect at its maximum, as opposed to the concentration needed.

The values are drawn from paper PMC8510290, “Fishing of α-Glucosidase’s Ligands from Aloe vera by α-Glucosidase Functionalized Magnetic Nanoparticles” (Molecules, 2021).
